Measurements taken from US20100069341A1, “TETRAHYDRO-PYRANOPYRAZOLE CANNABINOID MODULATORS” (priority 2005, published 2010).
Where two headings read alike, the source gives them in different places.

Tests used:
Cannabinoid CB2 Receptor = target: T1, Cannabinoid CB2 Receptor (Homo sapiens, UniProt P34972); assay: Binding assay, cannabinoid CB2 receptor ([3H]-CP-55,940 displacement, SK-N-MC cell membranes); conditions: test concentration of 0.2 μM; human CB2 in SK-N-MC membranes; read-out: Cannabinoid CB2 Receptor Binding, percent inhibition
T1 construct: expressed in transfected cells; semi-purified membrane pellet
Method: (§1) Binding Assay for CB1 or CB2 Agonists or Inverse Agonists
(§2) The human CB1 and CB2 receptors were stably expressed in SK-N-MC cells transfected with pcDNA3 CB-1 (human) or pcDNA3 CB-2 (human). The cells were grown in T-180 cell culture flasks under standard cell culture conditions at 37° C. in a 5% CO2 atmosphere. The cells were harvested by trysinization and homogenized in a homogenization buffer (10 mM Tris, 0.2 mM MgCl2, 5 mM KCl, with protease inhibitors aprotinin, leupeptin, pepstatin A and bacitracin) and centrifuged (2000 g). The supernatant was then centrifuged in 2M sucrose (31,300 g) to produce a semi-purified membrane pellet. The pellet was resuspended in homogenization and store at −80° C.
(§3) On the day of the assay, the pellet was thawed on ice and diluted in assay buffer (50 mM Tris-HCl, 5 mM MgCl2, 2.5 mM EDTA, 0.5 mg/mL fatty acid free bovine serum albumin, pH 7.5). The diluted membrane was added with buffer, test compound or standard and the radioligand [H]^3+-CP-55,940 (0.2 nM) to the wells of a 96-well polypropylene plate. Non-specific binding was measured in wells containing 10 uM WIN 55,212. The plate was covered and incubated for 90 minutes at 30° C. The contents were then aspirated onto a Packard Unifilter GF/C filter bottom plate prewet with 0.5% polyethyleneimine. The wells of the polypropylene plate were rinsed and aspirated seven times with a 0.9% saline-0.5% Tween 20 solution. The Unifilter plate was dried, a scintillation cocktail was added to each well and the counts representing binding were quantitated in a TopCount scintillation counter.
For compounds tested, an IC50 binding value was obtained from percent inhibition studies in which various test concentrations were used. The binding value (in μM) was calculated by linear regression. For compounds without an IC50 binding value, the percent inhibition (in %) was obtained at a test concentration of 0.2 μM.

Cannabinoid CB1 Receptor = target: T2, Cannabinoid CB1 Receptor (Homo sapiens, UniProt P21554); assay: Binding assay, cannabinoid CB1 receptor ([3H]-CP-55,940 displacement, SK-N-MC cell membranes); conditions: for inhibition at 0.2 µM: read-out: Cannabinoid CB1 Receptor Binding, percent inhibition
T2 construct: expressed in transfected cells; semi-purified membrane pellet
Method: as §1, §2
as §3, with “The diluted membrane was added with buffer, test compound or standard and the radioligand [H]^3+-CP-55,940 (0.2 nM) to the wells of a 96-well polypropylene plate. Non-specific binding was measured in wells containing 10 uM WIN 55,212.” left out
For compounds tested, an IC50 binding value was obtained from percent inhibition studies in which various test concentrations were used. The binding value (in μM) was calculated by linear regression.

[1] = test concentration of 0.2 μM, human CB1 in SK-N-MC membranes

T2 sequence (P21554 whole entry): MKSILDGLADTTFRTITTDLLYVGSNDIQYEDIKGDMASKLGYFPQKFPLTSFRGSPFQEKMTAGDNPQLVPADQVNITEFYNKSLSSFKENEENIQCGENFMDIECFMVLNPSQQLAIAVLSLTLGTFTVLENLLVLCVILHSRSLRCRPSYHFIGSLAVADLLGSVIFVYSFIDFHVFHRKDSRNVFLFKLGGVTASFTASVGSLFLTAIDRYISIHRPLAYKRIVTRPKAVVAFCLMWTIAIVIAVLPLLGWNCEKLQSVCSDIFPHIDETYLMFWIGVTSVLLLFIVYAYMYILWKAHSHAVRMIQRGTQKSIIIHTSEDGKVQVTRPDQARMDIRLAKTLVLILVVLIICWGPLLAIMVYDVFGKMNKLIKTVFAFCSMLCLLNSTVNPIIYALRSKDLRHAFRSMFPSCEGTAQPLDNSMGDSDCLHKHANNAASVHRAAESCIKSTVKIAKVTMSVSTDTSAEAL
T1 sequence (P34972 whole entry): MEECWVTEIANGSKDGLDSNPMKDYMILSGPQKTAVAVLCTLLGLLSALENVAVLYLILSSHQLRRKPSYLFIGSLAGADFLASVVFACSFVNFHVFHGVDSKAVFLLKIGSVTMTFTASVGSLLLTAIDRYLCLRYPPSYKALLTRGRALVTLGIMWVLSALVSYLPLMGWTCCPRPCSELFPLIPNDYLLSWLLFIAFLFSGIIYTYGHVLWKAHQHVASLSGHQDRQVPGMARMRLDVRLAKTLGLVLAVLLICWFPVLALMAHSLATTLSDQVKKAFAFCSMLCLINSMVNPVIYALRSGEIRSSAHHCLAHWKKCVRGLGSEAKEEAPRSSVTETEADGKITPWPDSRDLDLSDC

SMILES	inhibition at 0.2 µM (Cannabinoid CB2 Receptor)	inhibition at 0.2 µM (Cannabinoid CB1 Receptor; [1])	IC50 (Cannabinoid CB1 Receptor)	inhibition at 0.2 µM (Cannabinoid CB1 Receptor)
C[C@H](NC(=O)c1nn(-c2ccc(Cl)cc2Cl)c2c1COC/C2=C\c1ccc(F)cc1)c1ccccc1 [Cpd 1, (7Z)-1-(2,4-dichloro-phenyl)-7-(4-fluoro-benzylidene)-1,4,6 7-tetrahydro-pyrano[4,3-c]pyrazole-3-carboxylic acid [(1S)-1-phenyl-ethyl]-amide]	6%	54%		
C[C@@H](NC(=O)c1nn(-c2ccc(Cl)cc2Cl)c2c1COC/C2=C\c1ccc(F)cc1)c1ccccc1 [Cpd 2, (7 Z)-1-(2,4-dichloro-phenyl)-7-(4-fluoro-benzylidene)-1,4,6,7-tetrahydro-pyrano[4,3-c]pyrazole-3-carboxylic acid [(1R)-1-phenyl-ethyl]-amide]	23%	87%	13 nM	
O=C(N[C@@H]1CCC[C@H]1O)c1nn(-c2ccc(Cl)cc2Cl)c2c1COC/C2=C\c1ccc(F)cc1 [Cpd 3, (7Z)-1-(2,4-dichloro-phenyl)-7-(4-fluoro-benzylidene)-1,4,6,7-tetrahydro-pyrano[4,3-c]pyrazole-3-carboxylic acid [(1R,2R)-2-hydroxy-cyclopentyl]-amide]	0%	32%		
O=C(N[C@H]1c2ccccc2C[C@H]1O)c1nn(-c2ccc(Cl)cc2Cl)c2c1COC/C2=C\c1ccc(F)cc1 [Cpd 4, (7Z)-1-(2,4-dichloro-phenyl)-7-(4-fluoro-benzylidene)-1,4,6,7-tetrahydro-pyrano[4,3-c]pyrazole-3-carboxylic acid [(1S,2R)-2-hydroxy-indan-1-yl]-amide]	19%	64%		
O=C(N[C@@H]1c2ccccc2C[C@@H]1O)c1nn(-c2ccc(Cl)cc2Cl)c2c1COC/C2=C\c1ccc(F)cc1 [Cpd 5, (7Z)-1-(2,4-dichloro-phenyl)-7-(4-fluoro-benzylidene)-1,4,6,7-tetrahydro-pyrano[4,3-c]pyrazole-3-carboxylic acid [(1R,2S)-2-hydroxy-indan-1-yl)-amide]	28%	82%	30 nM	
O=C(NCc1ccccn1)c1nn(-c2ccc(Cl)cc2Cl)c2c1COC/C2=C\c1ccc(F)cc1 [Cpd 6, (7Z)-1-(2,4-dichloro-phenyl)-7-(4-fluoro-benzylidene)-1,4,6,7-tetrahydro-pyrano[4,3-c]pyrazole-3-carboxylic acid (pyridin-2-ylmethyl)-amide]	25%	37%		
O=C(NN1CCCCC1)c1nn(-c2ccc(Cl)cc2Cl)c2c1COC/C2=C\c1ccc(F)cc1 [Cpd 7, (7Z)-1-(2,4-dichloro-phenyl)-7-(4-fluoro-benzylidene)-1,4,6,7-tetrahydro-pyrano[4,3-c]pyrazole-3-carboxylic acid piperidin-1-ylamide]	8%	79%	40 nM	
O=C(c1nn(-c2ccc(Cl)cc2Cl)c2c1COC/C2=C\c1ccc(F)cc1)N1CCCCC1 [Cpd 8, (7Z)-[1-(2,4-dichloro-phenyl)-7-(4-fluoro-benzylidene)-1,4,6,7-tetrahydro-pyrano[4,3-c]pyrazol-3-yl]-piperidin-1-yl-methanone]	7%	45%		
O=C(NN1CCCC1)c1nn(-c2ccc(Cl)cc2Cl)c2c1COC/C2=C\c1ccc(F)cc1 [Cpd 9, (7Z)-1-(2,4-dichloro-phenyl)-7-(4-fluoro-benzylidene)-1,4,6,7-tetrahydro-pyrano[4,3-c]pyrazole-3-carboxylic acid pyrrolidin-1-ylamide]	0%	58%		
O=C(c1nn(-c2ccc(Cl)cc2Cl)c2c1COC/C2=C\c1ccc(F)cc1)N1CCCC1 [Cpd 10, (7Z)-[1-(2,4-dichloro-phenyl)-7-(4-fluoro-benzylidene)-1,4,6,7-tetrahydro-pyrano[4,3-c]pyrazol-3-yl]-pyrrolidin-1-yl-methanone]	14%	33%		
O=C(NN1CCCCC1)c1nn(-c2ccc(Cl)cc2)c2c1COC/C2=C\c1ccc(F)cc1 [Cpd 11, (7Z)-1-(4-chloro-phenyl)-7-(4-fluoro-benzylidene)-1,4,6,7-tetrahydro-pyrano[4,3-c]pyrazole-3-carboxylic acid piperidin-1-ylamide]	6%	55%		
C[C@@H](NC(=O)c1nn(-c2ccc(Cl)cc2)c2c1COC/C2=C\c1ccc(F)cc1)c1ccccc1 [Cpd 12, (7Z)-1-(4-chloro-phenyl)-7-(4-fluoro-benzylidene)-1,4,6,7-tetrahydro-pyrano[4,3-c]pyrazole-3-carboxylic acid [(1R)-1-phenyl-ethyl]-amide]	5%	81%	50 nM	
C[C@@H](NC(=O)c1nn(-c2ccc(Cl)cc2)c2c1COC/C2=C\c1ccc(F)cc1)C1CCCCC1 [Cpd 13, (7Z)-1-(4-chloro-phenyl)-7-(4-fluoro-benzylidene)-1,4,6,7-tetrahydro-pyrano[4,3-c]pyrazole-3-carboxylic acid [(1R)-1-cyclohexyl-ethyl]-amide]	25%		20 nM	84%
CN(C(=O)c1nn(-c2ccc(Cl)cc2)c2c1COC/C2=C\c1ccc(F)cc1)c1ccccc1 [Cpd 14, (7Z)-1-(4-chloro-phenyl)-7-(4-fluoro-benzylidene)-1,4,6,7-tetrahydro-pyrano[4,3-c]pyrazole-3-carboxylic acid methyl-phenyl-amide]	7%	49%		
O=C(NN1CC2CCCC2C1)c1nn(-c2ccc(Cl)cc2)c2c1COC/C2=C\c1ccc(F)cc1 (centres unmarked) [Cpd 15, (7Z)-1-(4-chloro-phenyl)-7-(4-fluoro-benzylidene)-1,4,6,7-tetrahydro-pyrano[4,3-c]pyrazole-3-carboxylic acid (hexahydro-cyclopenta[c]pyrrol-2-yl)-amide]	18%	81%	80 nM	
O=C(NN1CCCC1)c1nn(-c2ccc(Cl)cc2)c2c1COC/C2=C\c1ccc(F)cc1 [Cpd 16, (7Z)-1-(4-chloro-phenyl)-7-(4-fluoro-benzylidene)-1,4,6,7-tetrahydro-pyrano[4,3-c]pyrazole-3-carboxylic acid pyrrolidin-1-ylamide]	11%	44%		
O=C(NN1CC2CCCC2C1)c1nn(-c2ccc(Cl)cc2Cl)c2c1COC/C2=C\c1ccc(F)cc1 (centres unmarked) [Cpd 17, (7Z)-1-(2,4-dichloro-phenyl)-7-(4-fluoro-benzylidene)-1,4,6,7-tetrahydro-pyrano[4,3-c]pyrazole-3-carboxylic acid (hexahydro-cyclopenta[c]pyrrol-2-yl)-amide]	29%	99%	20 nM	
O=C(c1nn(-c2ccc(Cl)cc2)c2c1COC/C2=C\c1ccc(F)cc1)N1CCC[C@@H]1CO [Cpd 18, (7Z)-[1-(4-chloro-phenyl)-7-(4-fluoro-benzylidene)-1,4,6,7-tetrahydro-pyrano[4,3-c]pyrazol-3-yl]-[(2R)-2-hydroxymethyl-pyrrolidin-1-yl]-methanone]	14%	30%		
O=C(c1nn(-c2ccc(Cl)cc2)c2c1COC/C2=C\c1ccc(F)cc1)N1CCC[C@H]1CO [Cpd 19, (7Z)-[1-(4-chloro-phenyl)-7-(4-fluoro-benzylidene)-1,4,6,7-tetrahydro-pyrano[4,3-c]pyrazol-3-yl]-[(2S)-2-hydroxymethyl-pyrrolidin-1-yl]-methanone]	13%	51%		
O=C(c1nn(-c2ccc(Cl)cc2Cl)c2c1COC/C2=C\c1ccc(F)cc1)N1CCC[C@@H]1CO [Cpd 20, (7Z)-[1-(2,4-dichloro-phenyl)-7-(4-fluoro-benzylidene)-1,4,6,7-tetrahydro-pyrano[4,3-c]pyrazol-3-yl]-[(2R)-2-hydroxymethyl-pyrrolidin-1-yl]-methanone]	18%	27%		
